Some results are limits rather than exact numbers.

The results in this text go back to a melting point compilation (Tetko et al.; mined from patent text by program, amines drawn as free bases though some values may be those of a salt).

For `ON=Cc1ccc(OCc2coc(-c3ccccc3)n2)cc1`, the melting point lay within 184 to 186 °C.

On to `CC(CC(C)C)=Nc1cc2c(cc1F)OCC(=O)N2`, for which the melting point fell in the range of 113 to 115 °C.

For `Cc1cc(C)cc(COC(=O)C(Cc2c[nH]c3ccccc23)NS(C)(=O)=O)c1` (centres undefined), the melting point was in the range of 96 to 97 °C.

For `O=C(Cc1c(-c2ccccc2)c2cc3c(cc2oc1=O)C(O)CC3)Nc1ccc(F)cc1C(F)(F)F` (centres undefined), the melting point was in the range of 217 to 218 °C.

For `N#Cc1cc(C(=O)NNC(=O)c2occ(-c3ccc(Cl)cc3)c2-c2ccc(Cl)cc2)ccc1O`, the melting point lay within 190 to 191 °C.

Regarding `C[Si]1(C)CC[Si](C)(C)N1c1ccc(Br)cn1`, the melting point lay within 50.4 to 55.8 °C.

For `CCOC(=O)c1[nH]c2cc(Cl)cc(Cl)c2c1NCC(=O)c1ccc([N+](=O)[O-])cc1`, the melting point is 283 to 286 °C.

The compound `CC(C)(C)C(O)(CC(Br)=CBr)Cn1cncn1` (centres undefined) had a melting point of 81 °C.

The compound `COC(=O)C(C#N)C(c1ccccc1OC)c1ccnc2ccccc12` (centres undefined) displayed a melting point of 169 to 171 °C.

For the compound `CC1(C)C=Cc2c(ccc3c2C(=O)C(=O)C=C3)O1`, the melting point is 109 to 110 °C.

Compound `O=Cc1cc([N+](=O)[O-])c(O)c(O)c1Cl` came in with a melting point of 193 to 195 °C.

`CNC(=O)[C@@H](O)[C@H](Sc1cc(C)ccc1N)c1ccc(C)cc1` displayed a melting point of 168 to 170 °C.

On to `CCOCc1nc2c(N)nc3cc(OCc4csc(C)n4)ccc3c2n1CC(C)(C)O`, for which the melting point lay in the range of 200 to 201 °C.

The compound `Cc1nc(C)c(C(=O)c2ccoc2)o1` came in with a melting point of 73.5 to 74.5 °C.

For the compound `CC(C)(C)NC(=O)C(C#N)=NO`, the melting point was 218 to 219 °C.

Consider `O=C(NN1CCCCC1)c1nc(-c2ccc(Cl)cc2Cl)n(-c2ccc(Cl)cc2)c1CF`, for which the melting point lay in the range of 162 to 163 °C.

With `CC1(C)CCC(C)(C)c2cc(-c3ccc(O)cc3)ccc21`, the melting point fell in the range of 137 to 140 °C.

`O=CNC1=CCc2ccccc21` yielded a melting point of 87.5 to 88.5 °C.

On to `O=C(NCCc1ccccn1)Nc1ccccc1[N+](=O)[O-]`, for which the melting point amounted to 182 °C.

For the compound `CC(CCc1cccc(F)c1)NCC(O)c1ccc(F)c(S(N)(=O)=O)c1` (centres undefined), the melting point was 65 to 85 °C.

Consider `N#CCC(=O)NCc1ccccn1`, for which the melting point lay within 82 to 83 °C.

In turn, `CCCCCCCCCCCCCCCC(=O)C(O)(O)C(=O)OC(C)(C)C` yielded a melting point of 49 to 51 °C.

As to `COCCOCc1nn2c(-c3ccc(OC)cc3)nnc2c2ccccc12`, the melting point lay within 129 to 131 °C.

`Clc1ccc(N2CCN3CCC2CC3)nn1` returned a melting point of 127 to 128 °C.

On to `Nc1cccc(-c2ccc(C3=CCCN(Cc4ccccc4)C3)cc2)n1`, for which the melting point lay within 270 to 272 °C.

For the compound `Cc1cc(COc2nn(Cc3ccccc3)cc2CO)ccc1OCc1nc(-c2ccco2)oc1C`, the melting point lay in the range of 91 to 92 °C.

`COc1ccc2c(Cc3c(Cl)cncc3Cl)nnc(NN)c2c1` came in with a melting point of 297 to 299 °C.

Take `CCOC(=O)c1ccc(NCCCCCCCCCCC[Si](C)(C)C)cc1`: the melting point lay in the range of 66 to 68 °C.

The compound `O=C1CC(c2cccc(-n3ccnn3)c2)=Nc2ccc(-c3cc(F)ccc3F)cc2N1` showed a melting point of 231 °C.

As for `COc1cccc(-c2nc(-c3ccccc3)c3ncc(Cl)cc3n2)c1`, the melting point lay within 112 to 113 °C.

Regarding `Cc1c(CN2CCN(c3cccc(C(F)(F)F)c3)CC2)cc(-c2ccc(Cl)cc2)n1-c1ccc(Cl)cc1`, the melting point lay within 165 to 167 °C.

As to `C#CCN(c1ccc(C(=O)NCc2cccc(C#N)c2)cc1)C1CCc2cc3nc(C)[nH]c(=O)c3cc21` (racemic), the melting point was 260 °C.

For the compound `N#Cc1c(N)nc2ccc(N3CCN(Cc4ccccc4)CC3)cc2c1NCc1ccccc1`, the melting point was 202 °C.

`CCOC(=O)C(C)Oc1ccc2c(=O)c(-c3ccccc3)coc2c1` (centres undefined) yielded a melting point of 165 to 166 °C.

`Cc1oc(-c2ccccc2)nc1CCOc1ccc(CC2SC(=O)NC2=O)c2ccccc12` (centres undefined) registered a melting point of 188 to 191 °C.

On to `CCc1noc(-c2ncn(-c3cccc(Oc4ccc([N+](=O)[O-])cc4)c3)c2COC)n1`, for which the melting point lay in the range of 126 to 127 °C.

Take `OCCC(c1ccccc1)(c1ccccc1)c1ccccc1`: the melting point lay in the range of 103 to 106 °C.

In the case of `CC(C)(C)c1cc(C(C)(C)C)c(Br)c(C(C)(C)C)c1`, the melting point fell in the range of 170 to 172 °C.

The compound `CSc1nnc(C2(C)CC2)c(=O)n1N` registered a melting point of 115 to 116 °C.

For `CC(C)c1cc(C(=O)Nc2ccc(C(=O)O)s2)oc1C(C)C`, the melting point lay within 227 to 228 °C.

For `O=C(Cc1cc2ccccc2[nH]1)Nc1ccc(-n2nc(C(F)(F)F)cc2C(F)(F)F)cc1`, the melting point was in the range of 176 to 178 °C.

For `O=C(Nc1ccc2ncccc2c1)OCc1ccccc1`, the melting point amounted to 122 °C.

Consider `COCc1cc(O)c2nc(C)c(C)n2c1`, for which the melting point was 164 to 165 °C.

`CCC(CC)c1ccc(OC)c2nc(Nc3c(C)cc(Cl)cc3OC)n(C)c12`: the melting point fell in the range of 188 to 189 °C.

`C#CCCn1ncc2c(N)c(C(=O)OCC=C)c(C)nc21` had a melting point of 115 to 116 °C.

`CCOC(=O)NC1=NN(c2cccc(Cl)c2)C(=O)C1C` (centres undefined) showed a melting point of 162 °C.

As to `Cc1cccc(-c2nc3cccnn3c2-c2ccnc(NC(=O)c3ccccc3)c2)c1`, the melting point was 178 to 180 °C.

The compound `O=S1(=O)C(c2ccsc2)=CCC=C1c1ccsc1` gave a melting point of 162 to 164 °C.

As for `COc1ccc(-c2ncc(Cc3ccccc3)nc2-c2ccc(OC)cc2)cc1`, the melting point fell in the range of 107 to 109 °C.

For `O=C(O)c1cc2cc(OCCc3ccccc3)ccc2[nH]1`, the melting point fell in the range of 184 to 187 °C.

For `O=C(O)c1cccc(-n2ccc(-c3ccc(OC(F)(F)F)cc3)n2)c1`, the melting point was in the range of 191 to 194 °C.

Regarding `NC(=O)CCCOc1ccc(C23CC4CC(CC(C4)C2)C3)cc1`, the melting point was 176 to 177 °C.

Consider `CC12CCC(C1)C1(C)Oc3ccc(Br)cc3C21C` (centres undefined), for which the melting point came to 120 °C.

`[N-]=[N+]=NC1(CO)OC(n2ccc(=O)[nH]c2=O)C(O)C1O` (centres undefined) came in with a melting point of 86 to 93 °C.

As for `C=CCN1CCN(c2cc3c(cc2F)c(=O)c(C(=O)O)cn3CC)CC1`, the melting point was found to be 236 °C.

As to `O=[N+]([O-])c1ccc2c(c1)CCN(C[C@H](O)C(F)(F)F)CC2`, the melting point was in the range of 82 to 85 °C.

Compound `CC(C(=O)O)c1ccc(Oc2ccc(Cl)cc2)cc1` (centres undefined) gave a melting point of 105 to 107 °C.

For the compound `O=C(O)CCC(=O)N[C@@H](Cc1ccc(-c2ccccc2)cc1)C(=O)NCCCCNc1ncccn1`, the melting point is 200 to 205 °C.

Take `CC(=O)COc1cc(=O)oc2ccccc12`: the melting point lay in the range of 163 to 165 °C.

Regarding `Cc1ccc(S(=O)(=O)N2[C@@H](CC(=N)NO)CC[C@H]2c2ccc(F)cc2)cc1` (racemic), the melting point amounted to 84 °C.

Take `CCOC(=O)n1nc(Oc2c(F)cc(C(F)(F)F)cc2Cl)cc1C`: the melting point is 127 to 129 °C.

`CCOc1ccc2[nH]c(S(=O)Cc3cccn4ccnc34)nc2c1` (centres undefined) yielded a melting point of 186 to 188 °C.

Take `COCCOCc1ccc(C#CC2(O)CN3CCC2CC3)c(F)c1` (centres undefined): the melting point was in the range of 117 to 118 °C.

`COC(=O)c1cscc1NC(=O)NCCN1CCN(c2ccccc2OC)CC1` yielded a melting point of 195 to 199 °C.

In the case of `O=C(Nc1ccc(Cl)nc1)c1ccc(Cl)o1`, the melting point is 143 to 144 °C.

Consider `COc1ccc2sc(-c3ccc(OCCN4CCCC4)cc3)cc2c1`, for which the melting point lay in the range of 123 to 126 °C.

Take `COc1ccccc1NC(=O)Nc1cccc(-n2c(=O)c(CCC(=O)N(C)C)nc3cccnc32)c1`: the melting point lay within 242 to 245 °C.

Compound `CC(C)(C)OC(=O)NCc1cccc(C(=O)OCC#N)c1O` showed a melting point of 144 to 146 °C.

On to `CS(=O)c1ncc2cc(Cl)c(N)nc2n1` (centres undefined), for which the melting point was 260 to 262 °C.

For the compound `CC1CC(c2c[nH]c(-c3ccc(F)cc3)c2-c2ccncc2)=CCN1C` (centres undefined), the melting point fell in the range of 198 to 201 °C.

For `CCOC(=O)c1cnn(-c2ccc(Cl)cc2C(F)(F)F)c1Cl`, the melting point is 67 to 69 °C.

In turn, `Nc1c([N+](=O)[O-])cnn1-c1c(Cl)cc(C(F)(F)F)c(Cl)c1Cl` showed a melting point of 78 to 85 °C.

`C[C@H](NC(=O)Cc1cccc(F)c1)C(=O)N[C@@H]1C(=O)Nc2ccccc2O[C@@H]1c1ccccc1` gave a melting point of 130 to 140 °C.

In the case of `CC(C)(C)NCC(O)c1cc(Br)c(N)c(C(N)=O)c1` (centres undefined), the melting point is 135 to 145 °C.

For `Cc1ccc2oc(-c3ccccc3[N+](=O)[O-])cc2c1`, the melting point was 83 °C.

On to `C=C(C)C(=O)OCCCCCc1ccc(C(F)(F)Oc2ccc(OC(F)(F)c3ccc(CCCCCOC(=O)C(=C)C)cc3)c(C)c2)cc1`, for which the melting point was determined as 26 °C.

For `O=C(NC1CC1)C(Cl)Cl`, the melting point fell in the range of 130 to 132 °C.

Turning to `COc1ccc(-n2c(=O)cc(OC(C)=O)c3ccccc32)cc1`, the melting point was in the range of 174 to 175 °C.

With `COc1cccc2c(=O)[nH]c(-c3cc(C)c(OCCN4CCCC4)c(C)c3)nc12`, the melting point was 231 to 232 °C.

In the case of `COc1cccc(OC)c1C(=O)Nc1oncc1-c1ccc(C(F)(F)F)cc1`, the melting point was 199 to 201 °C.

Consider `CCc1cc(-n2c(=O)[nH]c3cc(C(F)(F)F)c(Oc4ccccc4)cc32)c(OC)cc1OC`, for which the melting point was > 240 °C.

`O=C(O)Cn1cc(Cc2cccc(OCc3ccc4ccccc4n3)c2)c2ccccc21` showed a melting point of 151 to 159 °C.

In turn, `COC(=O)c1cc(-c2ccccc2)c(=O)n2ccc3ccc(Cl)cc3c12` showed a melting point of 169 to 170 °C.

`COc1cc(F)ccc1-c1ccc(S(=O)(=O)N2c3ccccc3CC2C(=O)NCc2ccccc2N)cc1` (centres undefined): the melting point was 92 to 97 °C.

As for `Cn1c2c(ccc1=O)C(=O)CCC2`, the melting point is 174 to 176 °C.

In turn, `C=Cc1ccc(O)c(-n2nc3ccccc3n2)c1` yielded a melting point of 98 to 99 °C.

For the compound `Cc1ccccc1C(=O)Nc1ccc(C(=O)N2CCCC(C)(O)c3ccccc32)cc1` (centres undefined), the melting point lay within 204 to 205 °C.

In turn, `C[C@@]1(O)CCCC[C@H]1n1nc(-c2c(-c3ccccc3)nn3ccccc23)ccc1=O` (relative stereo) returned a melting point of 197 to 198 °C.

For the compound `COC(c1c(Cl)sc(Cl)c1Cl)C(C)N(OC)C(=O)c1cn(C)nc1C(F)F` (centres undefined), the melting point is 113 to 116 °C.
